# Data reported in patent publication US20250281433A1, “NOVEL DERIVATIVE COMPOUND HAVING BIPHENYL GROUP INTRODUCED INTO AMINO-ALKANOIC ACID AND ANTI-INFLAMMATORY COMPOSITION COMPRISING SAME” (AMTIXBIO CO., LTD., priority 2020, published 2025).
# How the values were obtained:
# [1] = test system: IL-6 production in RAW264.7 cells; test: LPS-induced IL-6 production in RAW264.7 cells (ELISA); format: cell-based, mouse; conditions: for Relative amount of IL-6 compared to LPS induction (%): Table 3, compounds at 8 μg/mL (FIG. 1), LPS alone = 100%; for avg / 1 well / 2 well / avg (%): Table 2; for avg / 1 well / 2 well: IL-6 production after LPS; for avg: average of wells; for 1 well: replicate well 1; for 2 well: replicate well 2; for avg (%): relative to LPS (100%)
# Description: The inhibitory effect on induced IL-6 cytokine production was analyzed. RAW264.7 cells (obtained from the Korean Cell Line Bank) were seeded at a density of 5×10^5 cells/well in a 12-well plate and stabilized in a CO2 incubator at 37° C. with 5% carbon dioxide and saturated humidity. After 24 hours of incubation, the compounds of the present invention were prepared in DMEM at concentrations of 0 μg/mL or 8 μg/mL and pre-treated for 30 minutes. Next, lipopolysaccharide (LPS, Sigma-Aldrich, Cat No. L2887) was treated to a concentration of 1 μg/mL to induce an inflammatory response for 24 hours. Subsequently, mouse IL-6 ELISA kit (Labiskoma, Cat No. K0331230P) and mouse TNF-α ELISA kit (Labiskoma, Cat No. K0331186P) were used according to the manufacturer's instructions, and absorbance was measured. FK506 (FK-506 monohydrate, manufacturer: MilliporeSigma, product number: F4679, U.S.A) was used as a control substance.
# After inducing inflammation as described in (1) and (2) above, the supernatant was collected, and the quantification of IL-6 in the supernatant was performed using the IL-6 ELISA kit (Mouse IL-6 ELISA Kit, pink-ONE, manufactured by Komabiotech, Product No. K0331230P) according to the manufacturer's instructions. Specifically, the amount of IL-6 in the supernatant was quantified according to the ELISA kit protocol, and the absorbance was measured at OD 450 nm using a microplate reader (Multiskan Sky, manufactured by Thermo Fisher Scientific). […] In Table 1 to Table 3, FIG. 1, and FIG. 2, the relative values of IL-6 generated after pretreatment with the compounds of the present invention were expressed as a percentage relative to the IL-6 production (100%) induced by LPS, TNF-α, or IFN-β treatment.
# [2] = test system: psoriasis symptoms induced by Aldara cream in BALB/c mice; test: Aldara cream-induced mouse psoriasis model: skin lesions / PASI score; format: in vivo; conditions: topical 150 μl for 4 days from 4th day, Compound 51 1%, Betamethasone 0.05%, versus Veh; for skin lesions (pictures, visual): 8th day; for PASI Score: p<0.001
# Description: (§1) After dissolving the test substance (Compound 51 of the present invention) using DMSO (Dimethyl sulfoxide, Sigma, Cat No. 472301), an appropriate concentration was prepared with PBS (HyClone, Cat No. SH30028.02). The transdermal test substance was prepared by dissolving the test substance in 100% ethanol (Medchem, Cat No. HY-13571). Betamethasone dipropionate (Sigma, Cat No. D1756, Lot No. BCBW7684), a positive control, was dissolved in DMSO, and PEG400 (Sigma, Cat. No. 06855) and 30% ethanol (Daejung, Cat. No. 4023-4100) were added to the mixture obtained above. The same vehicle was used for the negative control in the same way as the positive control specimen preparation.
# BALB/c mice (purchased through JA BIO, 27 males, 8 weeks old) were acclimatized for one week. After the mice were anesthetized with isoflurane 3 days before the application of Aldara cream, the hair on the back (3×3 cm) was removed using a clipper. The remaining hair was completely removed by leaving the hair removal cream for 1 minute. The mice were left for 72 hours to heal the wounds. To induce psoriasis, Aldera Cream (5% Imiquimod, Dong-A ST) 62.5 mg was applied at the same time point (AM 10:00) once/day 7 times, and 150 μl of test substance or positive control was applied from the 4th day at the same time point (PM 14:00) for 4 days. The composition of each test group was as follows. a) Con: Normal+excipient application group: 8 animals; b) Veh: Aldara cream+excipient application group: 8 animals; c) Beta: Aldara+Betamethasone 0.05% applied group: 8 animals; and d) Compound 51 1%: Aldara+Compound 51 1% application group: 3 animals. The autopsy proceeded in a non-fasting state, and the dorsal skin was removed from each mouse, rapidly frozen in liquid nitrogen, and stored at −80° C. before for the subsequent experiments.
# After taking pictures on the 0th, 4th, and 8th days to measure the skin index values, they were visually observed and recorded to measure the degree of skin lesions on the dorsal area. The condition of psoriasis skin lesions in each group was scored according to the evaluation index (erythema, skin thickness, dead skin cells) as None (0), Weak (1), Moderate (2), Severe (3), Very Severe (4) and set the score, and by summing up the scores of the three items, an evaluation score between a minimum of 0 and a maximum of 12 was calculated. […] After taking pictures in all groups on the 0th, 4th and 8th days, the evaluation indexes (erythema, skin thickness, and dead skin cells) of the psoriasis skin lesions in each group were graphed.
# [3] = test system: psoriasis symptoms induced by Aldara cream in BALB/c mice; test: Aldara cream-induced mouse psoriasis model: evaluation of scratching; format: in vivo; conditions: 8th day; topical; Compound 51 1%, Betamethasone 0.05%; versus Veh
# Description: as §1
# (§2) BALB/c mice (purchased through JA BIO, 27 males, 8 weeks old) were acclimatized for one week. After the mice were anesthetized with isoflurane 3 days before the application of Aldara cream, the hair on the back (3×3 cm) was removed using a clipper. The remaining hair was completely removed by leaving the hair removal cream for 1 minute. The mice were left for 72 hours to heal the wounds. To induce psoriasis, Aldera Cream (5% Imiquimod, Dong-A ST) 62.5 mg was applied at the same time point (AM 10:00) once/day 7 times, and 150 μl of test substance or positive control was applied from the 4th day at the same time point (PM 14:00) for 4 days. […]
# [4] = test system: psoriasis-related cytokine genes IL-17A, IL-17F, IL-23A (p19), IL-12A (p35), IL-12B (p40), IL-1β; test: Aldara cream-induced mouse psoriasis model: qRT-PCR of dorsal skin; format: in vivo; conditions: dorsal skin RNA, normalized to 18s rRNA; topical; Compound 51 1%, Betamethasone 0.05%; versus Veh
# Description: as §1, §2
smiles,measurement,setting,value
"CCCC(N)C(=O)Nc1ccc(-c2ccc(OC(F)(F)F)cc2)cc1.Cl (racemic) [Compound 32, (R)/(S)-2-amino-N-(4′-(trifluoromethoxy)-[1,1′-biphenyl]-4-yl)pentanamide hydrochloride]",Relative amount of IL-6 compared to LPS induction (%),[1]; LPS 1 μg/mL 24 h,16%
"CCCC(C(=O)Nc1ccc(-c2ccc(Cl)c(Cl)c2)cc1)N(C)C (racemic) [Compound 36, (R)/(S)—N-(3′,4′-dichloro-[1,1′-biphenyl]-4-yl)-2-(dimethylamino)pentanamide]",Relative amount of IL-6 compared to LPS induction (%),[1]; LPS 1 μg/mL 24 h,9%
"CCCC(N)C(=O)NCc1ccc(-c2ccc(Cl)c(Cl)c2)cc1.Cl (racemic) [Compound 45, (R)/(S)-2-amino-N-((3′,4′-dichloro-[1,1′-biphenyl]-4-yl)methyl)pentanamide hydrochloride]",Relative amount of IL-6 compared to LPS induction (%),[1]; LPS 1 μg/mL 24 h,3%
"CCCC(N)C(=O)NCc1ccc(-c2ccc(C(F)(F)F)cc2)cc1.Cl (racemic) [Compound 47, (R)/(S)-2-amino-N-((4′-(trifluoromethyl)-[1,1′-biphenyl]-4-yl)methyl)pentanamide hydrochloride]",Relative amount of IL-6 compared to LPS induction (%),[1]; LPS 1 μg/mL 24 h,12%
"CCCCC(N)C(=O)NCc1ccc(-c2ccc(C(F)(F)F)cc2)cc1.Cl (racemic) [Compound 48, (R)/(S)-2-amino-N-((4′-(trifluoromethyl)-[1,1′-biphenyl]-4-yl)methyl)hexanamide hydrochloride]",Relative amount of IL-6 compared to LPS induction (%),[1]; LPS 1 μg/mL 24 h,67%
"CCCC(N)C(=O)NCc1ccc(-c2ccc(OC(F)(F)F)cc2)cc1.Cl (racemic) [Compound 49, (R)/(S)-2-amino-N-((4′-(trifluoromethoxy)-[1,1′-biphenyl]-4-yl)methyl)pentanamide hydrochloride]",Relative amount of IL-6 compared to LPS induction (%),[1]; LPS 1 μg/mL 24 h,50%
"CCCCC(N)C(=O)NCc1ccc(-c2ccc(OC(F)(F)F)cc2)cc1.Cl (racemic) [Compound 50, (R)/(S)-2-amino-N-((4′-(trifluoromethoxy)-[1,1′-biphenyl]-4-yl)methyl)hexanamide hydrochloride]",Relative amount of IL-6 compared to LPS induction (%),[1]; LPS 1 μg/mL 24 h,68%
"CCCC(NC)C(=O)NCc1ccc(-c2ccc(Cl)c(Cl)c2)cc1.Cl (racemic) [Compound 51, (R)/(S)—N-((3′,4′-dichloro-[1,1′-biphenyl]-4-yl)methyl)-2-(methylamino)pentanamide hydrochloride]",avg,[1]; compound at 2 μg/ml,2615.50
same,avg,[1]; compound at 4 μg/ml,586.95
same,1 well,[1]; compound at 2 μg/ml,2815.00
same,1 well,[1]; compound at 4 μg/ml,669.30
same,2 well,[1]; compound at 2 μg/ml,2416.00
same,2 well,[1]; compound at 4 μg/ml,504.60
same,avg (%),[1]; compound at 2 μg/ml,56.11%
same,avg (%),[1]; compound at 4 μg/ml,12.59%
same,"skin lesions (pictures, visual)",[2],visually improved
same,PASI Score,[2],significantly decreased
same,"pruritus (scratching counts, 30 minutes)",[3],tendency to decrease pruritus
same,"psoriasis-related cytokine genes (IL-17A, IL-17F, IL-23A (p19), IL-12A (p35), IL-12B (p40), IL-1β) expression",[4],significantly reduced
"CCCC(NC)C(=O)NCc1ccc(-c2ccc(C(F)(F)F)cc2)cc1.Cl (racemic) [Compound 52, (R)/(S)-2-(methylamino)-N-((4′-(trifluoromethyl)-[1,1′-biphenyl]-4-yl)methyl)pentanamide hydrochloride]",Relative amount of IL-6 compared to LPS induction (%),[1]; LPS 1 μg/mL 24 h,13%
"CCCC(C(=O)NCc1ccc(-c2ccc(Cl)c(Cl)c2)cc1)N(C)C (racemic) [Compound 53, (R)/(S)—N-((3′,4′-dichloro-[1,1′-biphenyl]-4-yl)methyl)-2-(dimethylamino)pentanamide]",Relative amount of IL-6 compared to LPS induction (%),[1]; LPS 1 μg/mL 24 h,5%
"CCC(N)C(=O)NCCc1ccc(-c2ccc(C(F)(F)F)cc2)cc1.Cl (racemic) [Compound 76, (R)/(S)-2-amino-N-(2-(4′-(trifluoromethyl)-[1,1′-biphenyl]-4-yl)ethyl)butanamide hydrochloride]",Relative amount of IL-6 compared to LPS induction (%),[1]; LPS 1 μg/mL 24 h,9.58%
"CCCC(N)C(=O)NCCc1ccc(-c2ccc(OC(F)(F)F)cc2)cc1.Cl (racemic) [Compound 80, (R)/(S)-2-amino-N-(2-(4′-(trifluoromethoxy)-[1,1′-biphenyl]-4-yl)ethyl)pentanamide hydrochloride]",Relative amount of IL-6 compared to LPS induction (%),[1]; LPS 1 μg/mL 24 h,6%
"CCCC(N)C(=O)NCCc1ccc(-c2ccc(F)c(F)c2)cc1.Cl (racemic) [Compound 82, (R)/(S)-2-amino-N-(2-(3′,4′-difluoro-[1,1′-biphenyl]-4-yl)ethyl)pentanamide hydrochloride]",Relative amount of IL-6 compared to LPS induction (%),[1]; LPS 1 μg/mL 24 h,3%
"CCC(NC)C(=O)NCCc1ccc(-c2ccc(Cl)c(Cl)c2)cc1.Cl (racemic) [Compound 83, (R)/(S)—N-(2-(3′,4′-dichloro-[1,1′-biphenyl]-4-yl)ethyl)-2-(methylamino)butanamide hydrochloride]",Relative amount of IL-6 compared to LPS induction (%),[1]; LPS 1 μg/mL 24 h,9%
"CCCC(NC)C(=O)NCCc1ccc(-c2ccc(C(F)(F)F)cc2)cc1.Cl (racemic) [Compound 87, (R)/(S)-2-(methylamino)-N-(2-(4′-(trifluoromethyl)-[1,1′-biphenyl]-4-yl)ethyl)pentanamide hydrochloride]",Relative amount of IL-6 compared to LPS induction (%),[1]; LPS 1 μg/mL 24 h,24%
"CCC(=O)OCC(=O)[C@@]1(OC(=O)CC)[C@@H](C)C[C@H]2[C@@H]3CCC4=CC(=O)C=C[C@]4(C)[C@@]3(F)[C@@H](O)C[C@@]21C [Beta, Betamethasone dipropionate, reference compound]","skin lesions (pictures, visual)",[2],visually improved
same,PASI Score,[2],significantly decreased
same,"pruritus (scratching counts, 30 minutes)",[3],significant decrease
same,"psoriasis-related cytokine genes (IL-17A, IL-17F, IL-23A (p19), IL-12A (p35), IL-12B (p40), IL-1β) expression",[4],significantly reduced
"C=CC[C@@H]1/C=C(\C)C[C@H](C)C[C@H](OC)[C@H]2O[C@@](O)(C(=O)C(=O)N3CCCC[C@H]3C(=O)O[C@H](/C(C)=C/[C@@H]3CC[C@@H](O)[C@H](OC)C3)[C@H](C)[C@@H](O)CC1=O)[C@H](C)C[C@@H]2OC [FK506, FK-506 monohydrate, reference compound]",IL-6,"[1]; Table 1, LPS 1 μg/mL 24 h, compound 77 at 8 μg/ml, FK506 concentration not given",656.86 pg/mL
same,IL-6 (%),"[1]; Table 1, relative to IL-6 production induced by LPS (100%), compound 77 at 8 μg/ml, FK506 concentration not given",45.31%
